Measured values published in publication PMC12596218 (Journal of Lipid Research, 2025).

What was measured:
[1] = target: T1, NTCP M290T/I291V (NTCP→mAsbt) (Homo sapiens, UniProt Q14973, I291V/M290T); assay: [3H]TC transport and inhibition assay, NTCP→mAsbt mutant in HEK293 cells; format: cell-based; settings: 1 μM [3H]TC, 10 min
T1 construct: stably transfected with the full open reading frames of human NTCP, ASBT, SOAT, OATP1B1, OATP1B3, OATP2B1, and murine Asbt (mAsbt); expressed in transfected cells; host or cells: HEK293, stably transfected
T1 sequence (Q14973 1-349 M290T/I291V): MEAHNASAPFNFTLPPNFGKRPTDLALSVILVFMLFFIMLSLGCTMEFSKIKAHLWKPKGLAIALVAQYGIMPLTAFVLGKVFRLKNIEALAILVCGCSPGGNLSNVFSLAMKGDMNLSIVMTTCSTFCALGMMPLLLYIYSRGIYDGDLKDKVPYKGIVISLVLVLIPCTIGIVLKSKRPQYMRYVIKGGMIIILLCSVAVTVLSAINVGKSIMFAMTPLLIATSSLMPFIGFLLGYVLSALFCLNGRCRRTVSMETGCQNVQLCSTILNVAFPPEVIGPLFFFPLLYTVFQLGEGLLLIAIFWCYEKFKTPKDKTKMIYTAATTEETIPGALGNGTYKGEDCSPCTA
Description: Amplification was performed on a peqSTAR XS PEQLAB PCR cycler (Peqlab) with Pfu DNA polymerase (M774A; Promega) in 18 cycles under the following conditions: initial denaturation for 2 min at 95°C, denaturation for 30 s at 95°C, annealing for 1 min at 55°C, extension for 8 min and 30 s at 72°C, final elongation for 10 min at 72°C and final hold at 4°C. After amplification, the products were digested with DpnI (ER1701; Thermo Fisher Scientific) for 1 h at 37°C and transformed into TOP10 chemically competent E. coli (Thermo Fisher Scientific). Plasmids were isolated using a GeneJET Plasmid Miniprep Kit (Thermo Fisher Scientific) according to the manufacturer's protocol, and the generated point mutations were verified by DNA sequencing (Seqlab Microsynth).
Cells were seeded onto poly-L-lysine-coated 96-well plates, induced with 1 μg/ml tetracycline, and grown to confluence over 72 h at 37°C. Then, cells were washed with tempered (37°C) phosphate-buffered saline (PBS, containing 137.0 mM NaCl, 2.7 mM KCl, 1.5 mM KH2PO4, and 7.3 mM Na2HPO4, at pH 7.4) and preincubated with 80 μl sodium transport buffer (STB, containing 142.9 mM NaCl, 4.7 mM KCl, 1.2 mM MgSO4, 1.2 mM KH2PO4, 1.8 mM CaCl2, and 20.0 mM HEPES, at pH 7.4) for 5 min at 37°C. For inhibition studies, the medium was replaced by 80 μl STB containing the respective inhibitor or solvent alone and cells were further incubated for 5 min at 37°C. Transport experiments were started by adding 20 μl of a 5-fold concentrated substrate solution (solved in STB). For transport experiments under sodium-free conditions the same buffer composition was used as for STB, but sodium chloride was substituted with equimolar concentrations of choline chloride as previously reported ([20], [24]). Transport experiments were stopped by washing twice with ice-cold PBS and the plates were kept cool on ice until adding the lysis buffer [1% sodium dodecyl sulfate (SDS) and 1 N NaOH]. Then, the cell-associated radioactivity of the respective tritium-labeled substrate or ligand was quantified by liquid scintillation counting using MicroScint-20 scintillation cocktail (Revvity) in a Packard Microplate Scintillation Counter TopCount NXT (Packard Instrument Company). For IC50 transport inhibition measurements, the mean uptake values measured in non-carrier-expressing HEK293 control cells were defined as 0% uptake control and were subtracted from all other values. Values from cells without inhibitor and solvent alone were set to 100%. Finally, all net transport data were expressed as uptake or binding as % of control. All transport or inhibition graphs were generated with GraphPad Prism 6 (GraphPad). Determination of half maximal inhibitory concentrations (IC50) was done by nonlinear regression analysis using the equation log (inhibitor) versus response—variable slope settings. All data points of the IC50 curves represent means ± SD of quadruplicate determinations. For Km measurements, BS uptake in the absence of sodium was regarded as carrier-independent unspecific uptake and was subtracted from the transport rates in the presence of sodium to obtain carrier-specific uptake rates (indicated as dashed lines). From the specific uptake rates, Michaelis Menten Km values were calculated by non-linear regression analysis.

ASBT = target: T2, ASBT (Homo sapiens, UniProt Q12908); assay: Transport inhibition and recovery assay (inhibitor washout) in ASBT-HEK293 cells; format: cell-based; settings: 3 μM inhibitor 5 min; for ASBT inhibition pattern after inhibitor washout and inhibitor-free incubation: recovery time up to 240 min
T2 construct: stably transfected with the full open reading frames of human NTCP, ASBT, SOAT, OATP1B1, OATP1B3, OATP2B1, and murine Asbt (mAsbt); expressed in transfected cells; host or cells: HEK293 (Flp-In), stably transfected, tetracycline-induced
T2 sequence (Q12908 1-348): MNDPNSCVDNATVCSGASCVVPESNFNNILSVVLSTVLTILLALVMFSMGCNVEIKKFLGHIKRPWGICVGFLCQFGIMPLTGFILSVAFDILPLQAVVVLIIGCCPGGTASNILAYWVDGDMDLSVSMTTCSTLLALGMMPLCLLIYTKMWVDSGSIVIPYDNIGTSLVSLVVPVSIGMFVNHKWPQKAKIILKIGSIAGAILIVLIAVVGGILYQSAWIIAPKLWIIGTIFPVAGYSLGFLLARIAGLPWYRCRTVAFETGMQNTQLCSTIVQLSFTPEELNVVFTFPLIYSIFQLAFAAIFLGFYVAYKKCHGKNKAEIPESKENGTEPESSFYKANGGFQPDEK
Description: HEK293 cells stably expressing ASBT were seeded onto poly-L-lysine-coated 96-well plates, induced with 1 μg/ml tetracycline, and grown to confluence over 72 h at 37°C. Non-carrier-expressing HEK293 cells were used as control. Then, cells were washed with tempered (37°C) PBS and equilibrated for 5 min with STB. […] After inhibitor preincubation, cells were washed with tempered (37°C) PBS and further incubated in inhibitor-free DMEM (Thermo Fisher Scientific) for 30, 60, 120, or 240 min at 37°C. […] Finally, cell associated radioactivity was determined using the MicroBeta2 liquid scintillation counter (Revvity). For each inhibitor, the mean values from noncarrier-expressing HEK293 cells were set to 0% and transport measurements in the absence of inhibitor (solvent control) were set to 100%.
In the second setup, the inhibitor was thoroughly washed out after the preincubation phase and cells were placed on inhibitor-free medium for different time intervals of 0–240 min (indicated by “recovery time” in Fig. 7A).

CCCCC1(CCCC)CN(c2ccccc2)c2cc(SC)c(OCC(=O)N[C@@H](C(=O)NCC(=O)O)c3ccccc3)cc2S(=O)(=O)C1 [elobixibat]
Inhibition curves and AUC of NTCP→mAsbt mutant compared to wild-type NTCP [1]: did not significantly change
ASBT inhibition pattern after inhibitor washout and inhibitor-free incubation (ASBT): intermediate inhibition pattern

CCCCC1(CCCC)CS(=O)(=O)c2ccc(N(C)C)cc2[C@@H](c2ccc(OCc3ccc(C[N+]45CCN(CC4)CC5)cc3)cc2)[C@H]1O [maralixibat]
Inhibition curves and AUC of NTCP→mAsbt mutant compared to wild-type NTCP [1]: did not significantly change
ASBT inhibition pattern after inhibitor washout and inhibitor-free incubation (ASBT): retained full ASBT uptake inhibition

CCCCC1(CCCC)CN(c2ccccc2)c2cc(SC)c(OCC(=O)N[C@@H](C(=O)N[C@@H](CC)C(=O)O)c3ccc(O)cc3)cc2S(=O)(=O)N1 [odevixibat]
Inhibition curves and AUC of NTCP→mAsbt mutant compared to wild-type NTCP [1]: did not significantly change
ASBT inhibition pattern after inhibitor washout and inhibitor-free incubation (ASBT): retained full ASBT uptake inhibition

CCCCC1(CCCC)CS(=O)(=O)c2ccc(N(C)C)cc2[C@@H](c2ccc(OCCCC[N+]34CCN(CC3)CC4)cc2)[C@H]1O [SC-435]
Inhibition curves and AUC of NTCP→mAsbt mutant compared to wild-type NTCP [1]: still inactive
ASBT inhibition pattern after inhibitor washout and inhibitor-free incubation (ASBT): intermediate inhibition pattern

CCCC[C@]1(CC)CS(=O)(=O)c2cc(CNC(CC(=O)O)CC(=O)O)c(OC)cc2[C@@H](c2ccccc2)N1 [linerixibat]
Inhibition curves and AUC of NTCP→mAsbt mutant compared to wild-type NTCP [1]: still inactive
ASBT transport activity recovered directly after inhibitor washout (ASBT; 0 min recovery): about 37%
ASBT recovery after washout and 30 min in inhibitor-free medium (ASBT; 30 min recovery): mostly recovered ASBT
ASBT inhibition pattern after inhibitor washout and inhibitor-free incubation (ASBT): quick and full recovery
